The values below come from patent US20260165325A1, “NEW SUBSTITUTED TETRAHYDROBENZOXAZEPINE” (BASF SE, priority 2022, published 2026).

One assay has as its system Alternaria solani. Nature of the assay: Activity against the early blight pathogen Alternaria solani in the microtiterplate test. Format: cell-based. To be noted: 31 ppm active substance; MTP measured at 405 nm 7 days after inoculation, 18° C.
Another assay has as its system Sclerotinia sclerotiorum. Nature of the assay: Preventative fungicidal control of white mold on oilseed rape caused by Sclerotinia sclerotiorum. The assay is classed as in vivo. To be noted: 100 g/ha, assessed after 14 days, untreated plants 100% infected. The protocol:
The compound was dissolved in a mixture of acetone and/or dimethylsulfoxide and the wetting agent/emulsifier Wettol, which is based on ethoxylated alkylphenoles, in a ratio (volume) solvent-emulsifier of 99 to 1 to give a total volume of 5 ml. Subsequently, water was added to total volume of 100 ml. This stock solution was then diluted with the described solvent-emulsifier-water mixture to the final concentration given in the table below. Oilseed rapes were grown in pots to the 13 to 14 leaf stage. These plants were sprayed to run-off with previously described spray solution, containing the concentration of active ingredient or their mixture mentioned in the table below. The plants could air-dry. The next day the applicated rape petals were fixed with 25 μl of 2.5% methylcellulose on leaf 1 and 2. 25 μl of a spore suspension of Sclerotinia sclerotiorum was pipetted on each fixed rape petal. After 14 days at 20° C. and a relative humidity of 60% the extent of fungal attack on the leaves was visually assessed as % diseased leaf area.

The subject of the next assay is Fusarium culmorum. As to the kind of experiment: Activity against Fusarium culmorum in the microtiterplate test. Format: cell-based. To be noted: 31 ppm active substance; MTP measured at 405 nm 7 days after inoculation, 18° C. Here is the method:
The active compounds were formulated separately as a stock solution having a concentration of 10000 ppm in dimethyl sulfoxide.
The stock solutions were mixed according to the ratio, pipetted onto a micro titer plate (MTP) and diluted with water to the stated concentrations. A spore suspension of Fusarium culmorum in an aqueous biomalt or yeast-bactopeptone-glycerine or DOB solution was then added. The plates were placed in a water vapor-saturated chamber at a temperature of 18° C. Using an absorption photometer, the MTPs were measured at 405 nm 7 days after the inoculation.

For `Cc1cc(C2NC(C)C(C)(C)Oc3c(F)cccc32)cnc1C` (mixture of isomers) [Ex-6], in the assay on Alternaria solani, the “growth of the pathogen” value was determined as 23%.

As to `Cc1cc(C2NC(C)C(C)(C)Oc3c(F)cccc32)cnc1C(F)F` (mixture of isomers) [Ex-7], the “growth of the pathogen” value with Alternaria solani came out at 23%. Also, in the assay with Sclerotinia sclerotiorum, the “growth of the pathogen (% diseased leaf area)” value was “at most 1%”.

For `Cc1cc(C2c3ccccc3OCC3(CC3)N2C)cnc1C(F)F` (centres unmarked) [Ex-1, 5-(6-(difluoromethyl)-5-methylpyridin-3-yl)-4-methyl-4,5-dihydro-2H-spiro[benzo[f][1,4]oxazepine-3,1′-cyclopropane]], the “growth of the pathogen” value in the assay with Fusarium culmorum is on record as 1%; in the assay on Alternaria solani it was 23%.
